In US7745465B2, “Method of enhancing cellular production of molecular chaperone, hydroxylamine derivatives useful for enhancing the chaperone production and the preparation thereof” (CytRx Corporation, priority 1995, dated 2010):

How the values were obtained:
[1] = system: AP-1; test: AP-1 transcription factor activity in yeast cells; format: cell-based
From the text: It was also investigated if the activity of AP-1 and P 1 transcription factors can be modulated by N-[2-hydroxy-3-(1-piperidinyl)propoxy]-3-piridinecarboximidoyl chloride maleate in yeast cells exposed to various stress conditions.

[2] = system: HSP72; test: Heat stress induced HSP72 production in 3T3 cells; format: cell-based, mouse; details: 10^−5 M
How it was run: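 Mouse 3T3 fibroblasts in MEM monolayer were heat-stressed 30 min at 43° C, with test compounds at 10^−5 M given 15 min before or 100 min after stress. HSP72 detected by immunoblot with SPA 810 primary and HRP secondary antibodies, quantified by densitometry.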

[3] = system: Rats with genetic hypertension; test: Morphological examination of the thoracic aorta of rats with genetic hypertension; format: in vivo, rat; details: daily oral treatment (20 mg/kg 8 days or 5 mg/kg 20 days)
Method: Rats with genetic hypertension were divided into four groups of four. The groups were treated daily, orally, the first group with physiological saline, the second group with N-[2-hydroxy-3-(1-piperidinyl)]-propoxy-3-pyridine-carboximidoyl-chloride maleate (20 mg/kg) for 8 days, the third group with N-[2-hydroxy-3-(1-piperidinyl)-propoxy]-benzimidoyl-chloride monohydrochloride (5 mg/kg) for 20 days and the fourth group with N-[2-hydroxy-3-(1-piperidinyl)-propoxy]-2-thiophenecarboximidoyl-chloride monohydrochloride (5 mg/kg) for 20 days. Animals were sacrificed, aortas were isolated, snap frozen in liquid nitrogen and were stored at −70° C. till they were used.
The examination was performed according to published methods (Br. J. of Pharmacol., 1995; 115, […]). A 1 mm^2 area of the thoracic aorta was excised and fixed in 2.5% glutaral-dehyde at room temperature. Post fixation was performed in 1% osmium-tetroxide for one hour. The tissue was dehydrated in ethanol and was embedded in Durcupan ACM. Pictures were taken by a Hitachi 7100 electronmicroscope and were evaluated qualitatively.

[4] = system: hsp72 gene; test: Northern blot of hsp72 mRNA in rat heart ventricles; format: in vivo
Method: Experiments were carried out in SPRD male rats. Animals were anaesthetized with Nembutal in a dose of 60 mg/kg/i.p. Body temperature of the rats were maintained with an infra lamp placed over the abdomen and the rectal temperature was measured. After a 25-40 minute period the temperature of the rats increased to 42.0-42.2° C. and this temperature was maintained for 15 minutes. After a recovery period (2 hrs), tissue samples were collected from the left and right ventricles.
Experiments were carried out in SPRD male rats. The animals were anaesthetized with Nembutal in a dose of 60 mg/kg/i.p. After opening the chest and pericardium, the LAD coronary artery was occluded for 5 minutes and then the incidence and duration of ventricular tachycardia and fibrillation in the reperfusion period (10 minutes) were investigated. Tissue samples were collected from the left and right ventricles.
Total RNA was extracted using RN Agents kit (Promega) according to the manufacturer's instructions (Protocols and Applications Guide, 2nd edition, 1991, Promega Corporation). […]
Prehybridizations were carried out at 65° C. in H-buffer (0.25M Na2HPO4, pH 7.2, 7% SDS) for 15 minutes. […] The membrane was washed with 20 mM Na2HPO4, pH 7.2, 5% SDS (65 C; 2×15 min.) and evaluated by autoradiography. […]

O=C(O)/C=C\C(=O)O.OC(CON=C(Cl)c1cccnc1)CN1CCCCC1 (stereo not shown) [N-[2-hydroxy-3-(1-piperidinyl)-propoxy]3-pyridinecarboximidoyl chloride maleate]
activity of AP-1 ([1]; rich medium): decrease the activity of the factor | activity of AP-1 ([1]; supply of nutrients inadequate): increases the activity of AP-1 | HSP72 level relative to the stress exposed control ([2]; treatment 15 min. before 30 min. 43° C. heat stress): +++ (>100%) | HSP72 level relative to the stress exposed control ([2]; treatment 100 min. after 30 min. 43° C. heat stress): 0 (0 indicates that the treatment altered by ±20% the stress induced hsp72 level in the cells) | regeneration of the cells of aorta [3]: facilitated the regeneration of the cells of aorta | expression of hsp72 gene in heart muscle preparations ([4]; 100 mg/kg p.o., ischemia): highly increased expression of hsp72 gene | activation of the hsp72 gene ([4]; in the absence of stress, compound alone): unable to activate the hsp72 gene
